Data taken from publication PMC3480797 (Indian Journal of Pharmacology, 2012).

Assays:
[1] = type: in vivo, rats; conditions: rat, oral nimodipine 12 mg/kg
[2] = type: in vivo, rats; conditions: rat, i.v. nimodipine 3 mg/kg, with pravastatin 0.3 and 1 mg/kg
P-gp = P-gp (Homo sapiens, UniProt P08183); test: Rhodamine-123 retention assay in P-gp overexpressing MCF-7/ADR cells; type: cell-based; conditions: 10 to 100 μM, 90 min, 20 μM rhodamine-123, MCF-7/ADR cells
human CYP3A4 = human CYP3A4 (Homo sapiens, UniProt P08684); test: biochemical
Chain of human CYP3A4 (P08684 whole entry): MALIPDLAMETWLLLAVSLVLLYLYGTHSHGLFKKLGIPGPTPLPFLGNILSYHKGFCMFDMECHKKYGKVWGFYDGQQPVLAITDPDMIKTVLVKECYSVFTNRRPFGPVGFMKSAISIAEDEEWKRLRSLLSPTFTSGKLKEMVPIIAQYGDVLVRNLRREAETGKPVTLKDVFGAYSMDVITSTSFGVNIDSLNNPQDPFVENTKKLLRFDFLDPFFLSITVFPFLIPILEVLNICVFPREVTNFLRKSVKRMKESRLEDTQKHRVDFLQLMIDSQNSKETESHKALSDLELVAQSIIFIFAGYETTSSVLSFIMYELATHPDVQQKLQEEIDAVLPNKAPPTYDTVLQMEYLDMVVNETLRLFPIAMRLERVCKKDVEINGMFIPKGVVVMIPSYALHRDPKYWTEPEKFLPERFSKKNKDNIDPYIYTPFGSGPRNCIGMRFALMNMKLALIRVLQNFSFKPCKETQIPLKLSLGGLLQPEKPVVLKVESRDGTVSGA

Chain of P-gp (P08183 whole entry): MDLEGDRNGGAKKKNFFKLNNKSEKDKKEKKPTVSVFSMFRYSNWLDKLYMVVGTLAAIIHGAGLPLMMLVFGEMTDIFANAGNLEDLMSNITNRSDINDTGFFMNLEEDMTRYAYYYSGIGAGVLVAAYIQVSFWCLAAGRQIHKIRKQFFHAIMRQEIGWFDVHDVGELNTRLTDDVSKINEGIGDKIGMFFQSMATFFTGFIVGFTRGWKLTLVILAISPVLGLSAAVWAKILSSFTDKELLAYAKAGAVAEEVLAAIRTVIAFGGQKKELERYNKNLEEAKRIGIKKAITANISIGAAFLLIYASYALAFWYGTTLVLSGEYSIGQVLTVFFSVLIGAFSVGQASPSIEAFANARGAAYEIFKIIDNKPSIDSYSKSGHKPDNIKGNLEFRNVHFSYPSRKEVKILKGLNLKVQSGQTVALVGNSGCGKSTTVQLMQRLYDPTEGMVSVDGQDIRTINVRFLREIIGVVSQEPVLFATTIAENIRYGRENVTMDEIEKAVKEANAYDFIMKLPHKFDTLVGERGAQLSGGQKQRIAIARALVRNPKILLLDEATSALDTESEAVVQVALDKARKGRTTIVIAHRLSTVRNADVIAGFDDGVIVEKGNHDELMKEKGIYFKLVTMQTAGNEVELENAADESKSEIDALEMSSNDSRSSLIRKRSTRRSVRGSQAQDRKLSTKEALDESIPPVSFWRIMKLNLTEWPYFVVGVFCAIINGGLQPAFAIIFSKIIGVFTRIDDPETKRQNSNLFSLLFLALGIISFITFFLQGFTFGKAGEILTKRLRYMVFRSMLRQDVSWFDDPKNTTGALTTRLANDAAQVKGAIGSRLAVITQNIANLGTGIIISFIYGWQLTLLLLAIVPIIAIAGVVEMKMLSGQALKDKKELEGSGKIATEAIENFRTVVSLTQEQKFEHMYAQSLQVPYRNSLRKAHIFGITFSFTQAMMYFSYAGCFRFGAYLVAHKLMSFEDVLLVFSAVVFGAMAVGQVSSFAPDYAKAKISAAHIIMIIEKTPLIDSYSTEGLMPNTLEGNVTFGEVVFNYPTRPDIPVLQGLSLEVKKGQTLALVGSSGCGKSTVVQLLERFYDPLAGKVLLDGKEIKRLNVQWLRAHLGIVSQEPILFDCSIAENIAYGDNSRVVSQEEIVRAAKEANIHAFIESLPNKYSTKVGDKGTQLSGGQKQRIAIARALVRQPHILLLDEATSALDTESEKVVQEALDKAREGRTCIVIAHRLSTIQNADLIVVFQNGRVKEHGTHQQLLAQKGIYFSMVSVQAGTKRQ

Row | increase of AUC0-∞ compared with the control group ([1]; with 1 mg/kg pravastatin, P < 0.05) [%] | increase of AB compared with the oral control group ([1]; with pravastatin (1 mg/kg)) [%] | effect of concurrent pravastatin on the pharmacokinetics of i.v. nimodipine [2] | IC50 (human CYP3A4) [µM] | Structure (SMILES) | effect on P-gp activity (cellular uptake of rhodamine-123) (P-gp)
1 | 30.9 | 31.1 | not affected | – | COCCOC(=O)C1=C(C)NC(C)=C(C(=O)OC(C)C)C1c1cccc([N+](=O)[O-])c1 (centres unmarked) [nimodipine, Nimodipine] | –
2 | – | – | – | 14 | CC[C@H](C)C(=O)O[C@H]1C[C@H](O)C=C2C=C[C@H](C)[C@H](CC[C@@H](O)C[C@@H](O)CC(=O)O)[C@H]21 [pravastatin, Pravastatin] | did not significantly inhibit P-gp activity
